Measurements reported in ChEMBL document CHEMBL5131467, “Multivalent peptide dendrimers inhibit the fusion of viral-cellular membranes and the cellular NF-κB signaling pathway” (Eur J Med Chem, 2022).
Calls of active or inactive are those of the source. No cut-off for these calls is given here. Where a SMILES comes first, the peptide text is derived from it. Bridges are numbered along the chain shown (N, C = ends). Roman numbers before positions name the chains, in order. Side-chain parts run from the residue outwards. The star is where a group is joined. Fmoc = O=C(OCC1c2ccccc2-c2ccccc21)*

How the values were obtained:
RAW264.7 [1] = experiment: Anti-inflammatory activity against mouse RAW264.7 cells assessed as reduction in LPS induced TNF alpha level at 5 ug/ml by ELISA method; assay type: functional; conditions: dose 5 µg/ml
Influenza A virus [2] = experiment: Antiviral activity against Influenza A virus A/Aichi/2/68(H3N2) infected in MDCK cells incubated for 1 hr by MTT assay; assay type: functional, organism-based
Mus musculus [3] = experiment: Antiviral activity against Kunming mouse infected with Influenza A virus (A/Puerto Rico/8/1934(H1N1)) assessed as recovery in body weight at 1.25 mg/kg, ip administered twice a day with a time interval of 12 hrs for 4 days measured from day 8 upto 15 days (reference value: 17.58 g); assay type: functional; conditions: time 15 day
Mus musculus [4] = experiment: Antiviral activity against Kunming mouse infected with Influenza A virus (A/Puerto Rico/8/1934(H1N1)) assessed as survival rate at 5 mg/kg, ip administered once a day for 5 days relative to control; assay type: functional; conditions: 120 h, time 5 day
Influenza A virus [5] = experiment: Antiviral activity against Influenza A virus (A/Puerto Rico/8/1934(H1N1)) infected in MDCK cells assessed as reduction in virus induced cytopathic effect pre-treated with virus followed by cell infection for 1 hr by MTT assay; assay type: functional, organism-based
Influenza A virus [6] = experiment: Antiviral activity against influenza A/Thailand/Kan353/2004 infected in MDCK cells assessed as inhibition of syncytium formation at 5 ug/ml incubated for 3 hrs by giemsa staining based assay relative to control; assay type: functional; parameters: scale not given: the % may be the effect or the level left; conditions: dose 5 µg/ml
[7] = Selectivity index, ratio of CC50 for MDCK cells to IC50 antiviral activity against Influenza A virus (A/Puerto Rico/8/1934(H1N1)) infected in MDCK cells assessed as reduction in virus induced cytopathic effect pre-treated with virus; assay type: toxicity, cell-based; conditions: dog, read-out: Selectivity Index
RAW264.7 [8] = experiment: Anti-inflammatory activity against mouse RAW264.7 cells assessed as reduction in Influenza A virus (A/Puerto Rico/8/1934(H1N1)) induced TNF alpha level at 5 ug/ml by ELISA method; assay type: functional; conditions: dose 5 µg/ml
Influenza A virus [9] = experiment: Antiviral activity against Influenza A virus (A/Puerto Rico/8/1934(H1N1)) infected in MDCK cells assessed as reduction in M1 mRNA level at 1 ug/ml measured after 24 hrs post infection by qRT-PCR analysis; assay type: functional, organism-based; conditions: dose 1.0 µg/ml
Influenza B virus = experiment: Antiviral activity against Influenza B virus 699[…] clinical isolate infected in MDCK cells incubated for 1 hr by MTT assay; assay type: functional, organism-based
[10] = AUC in Kunming mouse at 10 mg/kg, ip by HPLC analysis; assay type: ADME, organism-based; parameters: dose 10 mg/kg, route ip; conditions: in vivo
Mus musculus [11] = experiment: Antiviral activity against Kunming mouse infected with Influenza A virus (A/Puerto Rico/8/1934(H1N1)) assessed as survival rate at 5 mg/kg, ip administered twice a day with a time interval of 12 hrs for 4 days relative to control; assay type: functional; conditions: 96 h, time 4 day
Influenza A virus [12] = experiment: Antiviral activity against Influenza A virus 699(H3) clinical isolate infected in MDCK cells incubated for 1 hr by MTT assay; assay type: functional, organism-based
RAW264.7 [13] = experiment: Anti-inflammatory activity against mouse RAW264.7 cells assessed as reduction in LPS induced IL-6 level at 1 ug/ml by qRT-PCR analysis; assay type: functional, cell-based; conditions: dose 1.0 µg/ml

## NCCCC[C@H](NC(=O)OCC1c2ccccc2-c2ccccc21)C(=O)N[C@@H](CCCCN)C(=O)N[C@@H](Cc1c[nH]c2ccccc12)C(=O)N[C@@H](CCCCN)C(=O)NCCCC[C@H](NC(=O)[C@H](CCCCN)NC(=O)[C@H](Cc1c[nH]c2ccccc12)NC(=O)[C@H](CCCCN)NC(=O)[C@H](CCCCN)NC(=O)OCC1c2ccccc2-c2ccccc21)C(=O)NCCCC[C@H](NC(=O)[C@H](CCCCNC(=O)[C@H](CCCCN)NC(=O)[C@H](Cc1c[nH]c2ccccc12)NC(=O)[C@H](CCCCN)NC(=O)[C@H](CCCCN)NC(=O)OCC1c2ccccc2-c2ccccc21)NC(=O)[C@H](CCCCN)NC(=O)[C@H](Cc1c[nH]c2ccccc12)NC(=O)[C@H](CCCCN)NC(=O)[C@H](CCCCN)NC(=O)OCC1c2ccccc2-c2ccccc21)C(=O)NCC(=O)O (I: Fmoc-KKWKK([Lys-Trp-Lys-Lys-Fmoc])KG-OH / II: Fmoc-KKWKK([Lys-Trp-Lys-Lys-Fmoc]); amide I:6-II:C)
RAW264.7 [1]
  Activity: 280.5 pg/mL
Influenza A virus [2]
  IC50: 240 nM
Mus musculus [3]
  Activity: 25.84 g
Mus musculus [4]
  survival at 5 mg/kg: 20%
Influenza A virus [5]
  IC50: 280 nM
Influenza A virus [6]
  Activity: 90%
[7]
  selectivity ratio: 150
RAW264.7 [8]
  Activity: 328.4 pg/mL
Influenza A virus [9]
  Activity: Active
Influenza B virus
  IC50: 320 nM
[10]
  AUC: 11900 ng·h/mL
Mus musculus [11]
  survival at 5 mg/kg: 33%
Influenza A virus [12]
  IC50: 120 nM
RAW264.7 [13]
  Activity: Active
